According to patent US9915647B2 (priority 2011, dated 2018):

Experiments:
V79-G3 cells = assay type: cell-based, Chinese hamster
HEK293 cells = assay type: cell-based, human

For `Nc1ncnc2c1ncn2[C@@H]1O[C@H](COP(=O)(O)OP(=O)(O)O)[C@@H](O)[C@H]1O` [ADP, adenosine diphosphate], the “increase in respiration over the basal level” value (V79-G3 cells) was ~20%.

For `C=C(C)[C@H]1Cc2c(ccc3c2O[C@@H]2COc4cc(OC)c(OC)cc4[C@@H]2C3=O)O1` [rotenone], the “inhibition of ADP-stimulated respiration” value (HEK293 cells) was “dose-dependently” and the “rotenone sensitivity of glutamate+malate-supported respiration” value (V79-G3 cells) was “sensitive to rotenone”.
